Experimental data taken from patent publication US20220040263A1, “COMPANION DIAGNOSTIC FOR COMBINATION LENALIDOMIDE AND ERYTHROPOIETIN TREATMENT” (H. Lee Moffitt Cancer Center and Research Institute, Inc., priority 2016, published 2022).

How the values were obtained:
STAT5 [1] = assay: STAT5 DNA binding by EMSA in UT7 nuclear extracts; assay type: cell-based; conditions: combined lenalidomide and EPO treatment
[2] = tested on: lower risk MDS patients who have failed treatment with rhu-EPO; conditions: cited from earlier work
STAT5 [3] = assay: STAT5 phosphorylation in UT7 cells by Western immunoblot; assay type: cell-based
Method: FIGS. 2A and 2B show potentiation of STAT 5 activation by lenalidomide. […] Whole cell lysates were assayed for actin (Sigma), STAT5 and phospho-STAT5 (Cell Signaling) by Western immunoblot as previously described. […] K562 leukemia cells served as a positive control.
To determine if lenalidomide modulates EPO-R signaling to enhance cytokine induced clonogenic response, STAT5 phosphorylation and its nuclear trans-activation was evaluated after treatment with either lenalidomide or EPO alone, or the combination [FIG. 2A].

[4] = tested on: Jak2 and STAT5 phosphorylation in UT7 cells; assay: Jak2 and STAT5 phosphorylation in UT7 cells with JAK or Src kinase inhibitors (Western); assay type: cell-based
Method: 10×10^7 UT7 cells were serum starved then treated with SKI 606 or AG490 for 30 minutes, CC5013 for 2 hours, and stimulated with EPO (1 U/ml) for 10 minutes at 37° C. Cells were lysed and […] run on a 4-15% Gradient gel (Bio-rad). Antibodies included p-STAT5 (Upstate, 1:1000 in 5% TBS/milk), total STAT5 (Cell Signaling, 1:10000 in 5% TBS/milk), and p-Jak2 (Santa Cruz, 1:500 in 5% TBS/milk). Blots were developed with an ECL detection kit (Amersham).
To further evaluate the mechanism by which lenalidomide enhances the EPO-R signal, STAT5 activation was assessed in response to EPO+lenalidomide treatment using selective pharmacologic inhibitors of JAK (AG490) or Src ([…]) kinases [FIG. 4].

MDS BM-MNC = assay: Clonogenic (colony forming) assay of MDS BM-MNC pretreated with lenalidomide, plated with EPO; assay type: cell-based, human
Method: FIGS. 1A and 1B show Lenalidomide potentiates clonogenic response to […]. […] Colonies were scored after 14 days incubation and the growth of bone marrow colony-forming unit granulocyte, erythroid, macrophage, megakaryocyte (CFU-GEMM); burst-forming unit-erythroid (BFU-E); and colony-forming unit granulocyte-macrophage (CFU-GM) assessed. […] Cells were then plated in methylcellulose+10% FBS, 2000 cells/well, with or without erythropoietin (EPO). Colonies were scored at day seven.
To investigate the mechanism by which lenalidomide promotes erythropoiesis, the effect of lenalidomide on erythroid progenitor colony forming capacity was evaluated in lower risk patients [FIG. 1A]. Two-hour exposure to lenalidomide prior to initiation of BM-MNC in methylcellulose culture enhanced BFU-E formation over a concentration range of 0.001-1.0 μM. […] Erythroid progenitor cell lines were next evaluated to identify a model for investigation of the mechanism of lenalidomide's erythroid promoting effect.

rhu-CDC25C = molecular target: T1, rhu-CDC25C (Homo sapiens, UniProt P30307); assay: CDC25C phosphatase OMFP hydrolysis assay; assay type: biochemical
T1 construct: purchased BIOMOL
T1 sequence (P30307 1-473): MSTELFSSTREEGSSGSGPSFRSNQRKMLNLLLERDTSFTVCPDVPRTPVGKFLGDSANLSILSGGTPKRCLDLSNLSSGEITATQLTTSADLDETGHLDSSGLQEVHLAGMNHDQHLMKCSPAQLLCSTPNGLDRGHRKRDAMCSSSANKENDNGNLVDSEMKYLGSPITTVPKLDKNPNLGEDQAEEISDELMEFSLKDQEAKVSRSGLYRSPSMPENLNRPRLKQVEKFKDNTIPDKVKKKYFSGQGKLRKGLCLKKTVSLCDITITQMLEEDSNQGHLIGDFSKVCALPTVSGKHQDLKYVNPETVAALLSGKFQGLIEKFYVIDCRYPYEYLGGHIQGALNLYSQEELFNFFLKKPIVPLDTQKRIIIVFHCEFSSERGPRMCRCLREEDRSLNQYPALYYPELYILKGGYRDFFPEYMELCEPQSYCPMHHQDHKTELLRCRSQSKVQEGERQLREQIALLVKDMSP
Method: 200 U of rhu-CDC25C (BIOMOL) was incubated in assay buffer (100 mM Tris-HCL, pH 8.2, 40 mM NaCl, 1 mM DTT, 0.1% BSA, and 20% glycerol) for 1 hour at 37 C with the indicated inhibitors CC-5013, Thalidomide, and CDC25 Phosphatase Inhibitor, NSC, Calbiochem) at the concentrations indicated. The substrate OMFP (3-0-Methylfluorescein phosphate cyclohexylammonium salt, Sigma) was added at 500 μM and tubes were incubated for 60 minutes at 37° C. Samples were read on a spectrophotometer at 477 nm. Percent activity was calculated by subtracting background absorbance and dividing each sample by the CDC25C+control.
To determine if lenalidomide inhibits CDC25C phosphatase activity, rhu-CDC25C PTP inhibition by lenalidomide and thalidomide were compared to a CDC25C selective inhibitor using the 3-o-methylfluorescein phosphate (OMFP) hydrolysis assay [FIG. 10].

AML-EH5q cells = assay: Apoptosis by Annexin-V/PI flow cytometry in AML-EH5q cells; assay type: cell-based; conditions: AML-EH5q (5q-deleted) cells, 24 hours
Method: AML-EH5q (FIG. 8A) and U937 (FIG. 8B) cells were exposed to lenalidomide, thalidomide or vehicle at the concentrations indicated for 24 hours in IMDM and 20% FBS and apoptosis assessed by flow cytometry using Annexin-V/PI staining. Briefly, cells are incubated for 20 minutes at room temperature in 50 mM HEPES (pH 7.4) and 150 mM NaCl containing 2 mM calcium chloride with a mixture of 1 μg/mLAnnexin V-FITC (Boehringer Mannhein, Mannhein, Germany) and 2.5 μg/mL propidium iodide (PI; Sigma-Aldrich) before analysis.
The hematologic effects of lenalidomide could derive from dual effects that are karyotype-dependent, i.e., (1) the potentiation of erythropoiesis in non-del5q erythroid precursors, and (2) selective suppression of del5q clones. To confirm that lenalidomide is selectively cytotoxic to del-5q clones, an AML cell line transformed from an MDS patient with isolated 5q31 deletion was cultivated and the cell line successfully maintained in suspension culture with recombinant myeloid growth factor supplementation. This cell line [designated AML-EH5q] is an AML cell line that harbors the isolated 5q-deletion. […] To evaluate the selectivity of lenalidomide cytotoxic for del5q clones, apoptotic response to lenalidomide and thalidomide was compared in AML-EH5q and U937 (non-del5q) cells by flow cytometry. […] Viability was unaffected at all concentrations for both agents in U937 cells.

[5] = two-hour exposure prior to methylcellulose culture

STAT5 DNA binding (nuclear translocation) (STAT5 [1]): greater DNA binding | inhibition of CDC25C phosphatase activity (rhu-CDC25C): potent and selective inhibitor
SMILES: Nc1cccc2c1CN(C1CCC(=O)NC1=O)C2=O (stereo not drawn) [lenalidomide, 3-(4-amino-1-oxo-1,3-dihydro-2H-isoindol-2-yl)piperidine-2,6-dione]
cytogenetic response ([2]; del5q patients): 74% | transfusion-independence ([2]; del5q patients): 67% | erythroid response ([2]; patients with chromosome 5q31 interstitial deletion (del5q)): 76% | MER rate ([2]; patients with normal or alternate karyotypes): 25-30% | EPO-induced phosphorylation of STAT5 (STAT5 [3]; Western immunoblot, lenalidomide followed by EPO): increased | STAT5 phosphorylation (STAT5 [3]; lenalidomide alone): no effect | EPO-induced Jak2-phosphorylation ([4]; lenalidomide + EPO (Lane 7)): further augmented | Jak2-phosphorylation ([4]; lenalidomide alone (Lane 2)): increased | growth of multipotent progenitors (CFU-GEMM) (MDS BM-MNC; [5]): unchanged | growth of myeloid progenitors (CFU-GM) (MDS BM-MNC; [5]): unchanged | concentration range over which BFU-E formation was enhanced (MDS BM-MNC; two-hour exposure prior to methylcellulose culture with EPO, lower risk MDS BM-MNC): 0.001 to 1.0 µM | induction of programmed cell death (apoptosis) (AML-EH5q cells): concentration dependent induction of programmed cell death | induction of programmed cell death (apoptosis) (AML-EH5q cells; listed as Lenalidomide): selectively induced cell death
